Measurements taken from patent US20240208968A1, “ALPHA V BETA 6 AND ALPHA V BETA 1 INTEGRIN INHIBITORS AND USES THEREOF” (DiCE Molecules SV, Inc., priority 2021, published 2024).
pIC50: −log10 of the molar value. Where a name gives a salt, the structure may show the parent alone.

Assays:
αvβ1 = αvβ1 (Homo sapiens, UniProt P05556+P06756); assay: Solid Phase Integrin αvβ1 Assay; assay type: binding
Description: (§1) The compounds exemplified in this document were tested for their ability to inhibit αvβ1 and αvβ6 in below described solid phase integrin assays.
Solid Phase Integrin αvβ1 Assay
96-well microtiter plates (4 HBX Immulon; Thermo Fisher Scientific, Waltham, MA) were coated with 100 μL/well of 1 μg/mL recombinant TGFb1-LAP in TBS at 4° C., overnight. The coating solution was removed, and plates were blocked with 200 μL/well of blocking and binding buffer (2% BSA/TBST, 1 mM MnCl2) at room temperature for 1 hr. Blocking buffer was removed and 50 μL of binding buffer and testing compounds were added. 50 μL of diluted αvβ1 (0.2 ug/mL in binding buffer) was added to wells (100 μL/well total) for and plates incubated for 90 min at room temperature. Wells were washed thrice with washing buffer (TBS, 0.05% Tween, 1 mM MnCl2) and plates were incubated with 100 μL/well of a 1:12500 dilution of streptavidin-horseradish peroxidase conjugate (Thermo Fisher Scientific) in binding buffer for 20 min at room temperature. Bound protein was detected using the substrate TMB. The IC50 values for testing compounds were calculated by Levenberg-Marquardt four parameter fitting logistics.

αvβ6 = αvβ6 (Homo sapiens, UniProt P06756+P18564); assay: Solid Phase Integrin αvβ6 Assay; assay type: binding
Sequence of αvβ6 (P06756 31-992 limits assumed): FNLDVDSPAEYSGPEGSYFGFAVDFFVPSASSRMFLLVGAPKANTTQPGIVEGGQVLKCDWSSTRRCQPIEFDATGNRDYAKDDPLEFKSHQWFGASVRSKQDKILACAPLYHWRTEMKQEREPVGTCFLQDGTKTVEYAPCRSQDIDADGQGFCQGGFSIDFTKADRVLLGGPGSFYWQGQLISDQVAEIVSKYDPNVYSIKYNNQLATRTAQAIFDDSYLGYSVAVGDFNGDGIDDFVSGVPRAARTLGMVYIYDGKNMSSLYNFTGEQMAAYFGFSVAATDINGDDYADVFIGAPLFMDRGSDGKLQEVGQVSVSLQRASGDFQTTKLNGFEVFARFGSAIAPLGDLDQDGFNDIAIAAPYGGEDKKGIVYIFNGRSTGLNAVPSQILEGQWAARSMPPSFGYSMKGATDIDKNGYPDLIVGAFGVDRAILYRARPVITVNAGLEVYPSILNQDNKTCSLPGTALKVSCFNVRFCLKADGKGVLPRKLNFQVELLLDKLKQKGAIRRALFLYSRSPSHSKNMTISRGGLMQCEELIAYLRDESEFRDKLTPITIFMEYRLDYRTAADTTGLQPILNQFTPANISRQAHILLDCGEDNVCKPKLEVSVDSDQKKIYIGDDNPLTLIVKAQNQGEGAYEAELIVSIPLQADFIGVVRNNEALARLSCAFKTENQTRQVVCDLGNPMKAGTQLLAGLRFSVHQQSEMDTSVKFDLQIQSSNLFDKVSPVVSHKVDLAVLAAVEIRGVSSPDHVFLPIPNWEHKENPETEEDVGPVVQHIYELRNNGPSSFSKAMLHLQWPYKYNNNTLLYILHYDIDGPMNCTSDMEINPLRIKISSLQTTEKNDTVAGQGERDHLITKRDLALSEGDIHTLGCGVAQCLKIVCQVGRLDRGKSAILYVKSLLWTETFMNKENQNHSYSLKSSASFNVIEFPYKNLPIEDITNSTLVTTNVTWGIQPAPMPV
Sequence of αvβ6 (P18564 22-707 limits assumed): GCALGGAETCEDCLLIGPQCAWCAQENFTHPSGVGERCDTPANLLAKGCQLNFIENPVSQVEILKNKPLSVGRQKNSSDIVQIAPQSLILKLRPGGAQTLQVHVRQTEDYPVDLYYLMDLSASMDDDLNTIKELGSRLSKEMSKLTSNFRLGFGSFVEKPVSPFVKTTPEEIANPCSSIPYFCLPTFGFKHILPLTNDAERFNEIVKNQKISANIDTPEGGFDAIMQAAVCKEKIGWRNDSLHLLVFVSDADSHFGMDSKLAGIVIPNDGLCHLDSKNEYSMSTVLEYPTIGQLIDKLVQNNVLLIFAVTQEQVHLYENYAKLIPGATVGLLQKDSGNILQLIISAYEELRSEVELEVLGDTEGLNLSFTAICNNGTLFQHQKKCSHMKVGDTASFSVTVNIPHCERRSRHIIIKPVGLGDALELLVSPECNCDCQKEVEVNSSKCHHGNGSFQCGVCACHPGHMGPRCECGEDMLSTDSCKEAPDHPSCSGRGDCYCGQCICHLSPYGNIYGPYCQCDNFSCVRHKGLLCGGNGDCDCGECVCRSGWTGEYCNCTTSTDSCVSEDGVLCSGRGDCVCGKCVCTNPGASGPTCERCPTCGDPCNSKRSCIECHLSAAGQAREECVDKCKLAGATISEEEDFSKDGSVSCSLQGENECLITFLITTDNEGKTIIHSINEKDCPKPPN
Description: as §1
Solid Phase Integrin αvβ6 Assay
96-well microtiter plates (4 HBX Immulon; Thermo Fisher Scientific, Waltham, MA) were coated with 100 μL/well of 1 μg/mL recombinant TGFb1-LAP in TBS at 4° C., overnight. The coating solution was removed, and plates were blocked with 200 μL/well of blocking and binding buffer (2% BSA/TBST, 1 mM MnCl2) at room temperature for 1 hr. Blocking buffer was removed and 50 uL of binding buffer and testing compounds were added. 50 μL of diluted αvβ6 (0.2 μg/mL in binding buffer) was added to wells (100 uL/well total) and plates incubated for 1 hr at room temperature. Wells were washed thrice with washing buffer (TBS, 0.05% Tween, 1 mM MnCl2) and plates were incubated with 100 μL/well of a 1:12500) dilution of streptavidin-horseradish peroxidase conjugate (Thermo Fisher Scientific) in binding buffer for 20 min at room temperature. Bound protein was detected using the substrate TMB. The IC50 values for testing compounds were calculated by Levenberg-Marquardt four parameter fitting logistics.

Sequence of αvβ1 (P06756 31-992 limits assumed): as the sequence (P06756 31-992 limits assumed) above
Sequence of αvβ1 (P05556 21-728 limits assumed): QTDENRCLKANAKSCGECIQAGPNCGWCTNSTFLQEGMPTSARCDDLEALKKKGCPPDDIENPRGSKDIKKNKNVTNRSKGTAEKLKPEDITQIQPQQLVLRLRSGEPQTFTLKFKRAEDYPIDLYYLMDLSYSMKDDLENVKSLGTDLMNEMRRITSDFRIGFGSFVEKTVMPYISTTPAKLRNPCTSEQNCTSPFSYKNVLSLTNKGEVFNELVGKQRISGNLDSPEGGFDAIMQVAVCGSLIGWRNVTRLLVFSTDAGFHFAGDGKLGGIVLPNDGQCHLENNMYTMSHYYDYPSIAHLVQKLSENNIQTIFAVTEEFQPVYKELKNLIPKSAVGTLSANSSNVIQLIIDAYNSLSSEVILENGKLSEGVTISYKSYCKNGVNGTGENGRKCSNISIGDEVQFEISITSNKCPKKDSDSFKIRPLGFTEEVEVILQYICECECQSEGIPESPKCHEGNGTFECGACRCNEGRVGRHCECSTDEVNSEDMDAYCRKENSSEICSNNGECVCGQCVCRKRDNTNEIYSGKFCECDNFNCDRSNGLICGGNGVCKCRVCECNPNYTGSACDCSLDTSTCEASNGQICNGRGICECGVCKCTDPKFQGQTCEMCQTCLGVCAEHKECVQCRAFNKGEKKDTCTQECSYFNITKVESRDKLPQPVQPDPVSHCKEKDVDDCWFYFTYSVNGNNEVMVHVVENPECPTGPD

Structure (SMILES)	pIC50 (αvβ1)	pIC50 (αvβ6)
O=C(O)C[C@H](NC(=O)[C@@H]1CCCN(CCCc2ccc3c(n2)NCCC3)C1)c1cccc(C(F)(F)F)c1 (single isomer, unassigned) [Compound 203-A, hydrochloride]	< 6.00	6.00 to 7.00
O=C(O)C[C@@H](NC(=O)[C@@H]1CCCN(CCCc2ccc3c(n2)NCCC3)C1)c1cccc(C(F)(F)F)c1 (single isomer, unassigned) [Compound 203-B, hydrochloride]	> 7.00	> 7.00
O=C(O)C[C@@H](NC(=O)[C@@H]1CCCN(CCCc2ccc3c(n2)NCCC3)C1)c1ccc2c(c1)CCCC2 (single isomer, unassigned) [Compound 204-B]	> 7.00	> 7.00
O=C(O)C[C@H](NC(=O)[C@@H]1CCCN(CCCc2ccc3c(n2)NCCC3)C1)c1cccc(N2CC3CCC2CO3)c1 (single isomer, unassigned) [Compound 241-A]	> 7.00	> 7.00
O=C(O)C[C@H](NC(=O)[C@@H]1CCCN(CCCc2ccc3c(n2)NCCC3)C1)c1cccc(N2CC3CCC2CO3)c1 (single isomer, unassigned) [Compound 241-B]	> 7.00	> 7.00
O=C(O)C(CNC(=O)[C@@H]1CCCN(CCCc2ccc3c(n2)NCCC3)C1)c1ccc(C2CC2)cc1 (single isomer, unassigned) [Compound 259-B]	> 7.00	6.00 to 7.00
O=C(O)C[C@H](NC(=O)[C@@H]1CCCN(CCCc2ccc3c(n2)NCCC3)C1)c1ccc2c(c1)CCC2 [Compound 201-A, 3-(2,3-dihydro-1H-inden-5-yl)-3-((R)-1-(3-(5,6,7,8-tetrahydro-1,8-naphthyridin-2-yl)propyl)piperidine-3-carboxamido)propanoic acid hydrochloride]	6.00 to 7.00	> 7.00
O=C(O)C[C@@H](NC(=O)[C@@H]1CCCN(CCCc2ccc3c(n2)NCCC3)C1)c1ccc2c(c1)CCC2 [Compound 201-B, 3-(2,3-dihydro-1H-inden-5-yl)-3-((R)-1-(3-(5,6,7,8-tetrahydro-1,8-naphthyridin-2-yl)propyl)piperidine-3-carboxamido)propanoic acid hydrochloride]	> 7.00	> 7.00
O=C(O)C[C@H](NC(=O)[C@@H]1CCCN(CCCc2ccc3c(n2)NCCC3)C1)c1ccccc1 [Compound 202, (S)-3-phenyl-3-((R)-1-(3-(5,6,7,8-tetrahydro-1,8-naphthyridin-2-yl)propyl)piperidine-3-carboxamido)propanoic acid hydrochloride]	> 7.00	> 7.00
O=C(O)C[C@H](NC(=O)[C@@H]1CCCN(CCCc2ccc3c(n2)NCCC3)C1)c1ccc2c(c1)CCCC2 [Compound 204-A, 3-((R)-1-(3-(5,6,7,8-tetrahydro-1,8-naphthyridin-2-yl)propyl)piperidine-3-carboxamido)-3-(5,6,7,8-tetrahydronaphthalen-2-yl)propanoic acid]	> 7.00	> 7.00
O=C(O)C[C@H](NC(=O)[C@@H]1CCCN(CCCc2ccc3c(n2)NCCC3)C1)c1cccc(Br)c1 [Compound 205, (S)-3-(3-bromophenyl)-3-((R)-1-(3-(5,6,7,8-tetrahydro-1,8-naphthyridin-2-yl)propyl)piperidine-3-carboxamido)propanoic acid hydrochloride]	> 7.00	> 7.00
O=C(O)C[C@@H](NC(=O)[C@@H]1CCCN(CCCc2ccc3c(n2)NCCC3)C1)c1ccc2ccccc2c1 [Compound 206, (R)-3-(naphthalen-2-yl)-3-((R)-1-(3-(5,6,7,8-tetrahydro-1,8-naphthyridin-2-yl)propyl)piperidine-3-carboxamido)propanoic acid hydrochloride]	> 7.00	> 7.00
O=C(O)C[C@H](NC(=O)[C@@H]1CCCN(CCCc2ccc3c(n2)NCCC3)C1)c1ccc2ccccc2c1 [Compound 207, (S)-3-(naphthalen-2-yl)-3-((R)-1-(3-(5,6,7,8-tetrahydro-1,8-naphthyridin-2-yl)propyl)piperidine-3-carboxamido)propanoic acid hydrochloride]	6.00 to 7.00	6.00 to 7.00
O=C(O)C[C@@H](NC(=O)[C@@H]1CCCN(CCCc2ccc3c(n2)NCCC3)C1)c1cc(F)cc(C(F)(F)F)c1 [Compound 208-A, 3-(3-fluoro-5-(trifluoromethyl)phenyl)-3-((R)-1-(3-(5,6,7,8-tetrahydro-1,8-naphthyridin-2-yl)propyl)piperidine-3-carboxamido)propanoic acid]	> 7.00	> 7.00
O=C(O)C[C@H](NC(=O)[C@@H]1CCCN(CCCc2ccc3c(n2)NCCC3)C1)c1cc(F)cc(C(F)(F)F)c1 [Compound 208-B, 3-(3-fluoro-5-(trifluoromethyl)phenyl)-3-((R)-1-(3-(5,6,7,8-tetrahydro-1,8-naphthyridin-2-yl)propyl)piperidine-3-carboxamido)propanoic acid]	< 6.00	6.00 to 7.00
O=C(O)C[C@H](NC(=O)[C@@H]1CCCN(CCCc2ccc3c(n2)NCCC3)C1)c1cccc(Oc2ccccc2)c1 [Compound 209-A, 3-(3-phenoxyphenyl)-3-((R)-1-(3-(5,6,7,8-tetrahydro-1,8-naphthyridin-2-yl)propyl)piperidine-3-carboxamido)propanoic acid]	> 7.00	> 7.00
CC1(C)CN(c2cccc([C@@H](NC(=O)[C@@H]3CCCN(CCCc4ccc5c(n4)NCCC5)C3)C(F)(F)C(=O)O)c2)CCO1 [Compound 300, (R)-3-(3-(2,2-dimethylmorpholino)phenyl)-2,2-difluoro-3-((R)-1-(3-(5,6,7,8-tetrahydro-1,8-naphthyridin-2-yl)propyl)piperidine-3-carboxamido)propanoic acid]	> 7.00	
O=C(N[C@@H](CNC(=O)[C@@H]1CCCN(CCCc2ccc3c(n2)NCCC3)C1)C(=O)O)c1c(F)cccc1F [Compound 310]		6.00 to 7.00

Structure (SMILES)	pIC50 (αvβ1)	pIC50 (αvβ6)
O=C(NC[C@@H](C(=O)O)c1ccc(-c2ccccc2)cc1)[C@@H]1CCCN(CCCc2ccc3c(n2)NCCC3)C1 [Compound 343]		> 7.00
O=C(N[C@@H](CNC(=O)[C@@H]1CCCN(CCCc2ccc3c(n2)NCCC3)C1)C(=O)O)c1cccc(C2CC2)c1 [Compound 370]		> 7.00
CC(C)CNC(=O)[C@@H]1CCCC[C@H]1C(=O)N[C@@H](CNC(=O)[C@@H]1CCCN(CCCc2ccc3c(n2)NCCC3)C1)C(=O)O [Compound 526]	> 7.00	
O=C(O)C[C@H](NC(=O)[C@@H]1CCCN(CCCc2ccc3c(n2)NCCC3)C1)c1cccc(-n2cccn2)c1 [Compound 537]	> 7.00	
O=C(Cc1ccccc1Cl)N[C@@H](CNC(=O)[C@@H]1CCCN(CCCc2ccc3c(n2)NCCC3)C1)C(=O)O [Compound 545]		> 7.00
O=C(N[C@@H](CNC(=O)[C@@H]1CCCN(CCCc2ccc3c(n2)NCCC3)C1)C(=O)O)c1ccc2c(c1)CCC2 [Compound 548]		> 7.00
O=C(Cc1ccccc1)N[C@@H](CNC(=O)[C@@H]1CCCN(CCCc2ccc3c(n2)NCCC3)C1)C(=O)O [Compound 550]		> 7.00
O=C(O)C[C@H](NC(=O)[C@@H]1CCCN(CCCc2ccc3c(n2)NCCC3)C1)c1cc(F)cc(C2CC2)c1 [Compound 558]	> 7.00	
O=C(NC[C@H](Nc1cc(-c2ccccc2)ncn1)C(=O)O)[C@@H]1CCCN(CCCc2ccc3c(n2)NCCC3)C1 [Compound 564]		> 7.00
O=C(NC[C@H](Nc1ccccc1C1CC(F)(F)C1)C(=O)O)[C@@H]1CCCN(CCCc2ccc3c(n2)NCCC3)C1 [Compound 590]		> 7.00
O=C(NC[C@H](Nc1cccnc1C1CC(F)(F)C1)C(=O)O)[C@@H]1CCCN(CCCc2ccc3c(n2)NCCC3)C1 [Compound 591]		> 7.00
O=C(NC[C@H](Nc1cccc(C2CC(F)(F)C2)c1)C(=O)O)[C@@H]1CCCN(CCCc2ccc3c(n2)NCCC3)C1 [Compound 592]		> 7.00
CC1(C)CN(c2cccc([C@H](CNC(=O)[C@@H]3CCCN(CCCc4ccc5c(n4)NCCC5)C3)C(=O)O)c2)CCO1 [Compound 594]		6.00 to 7.00
CC1(C)COCCN1c1cccc([C@H](CNC(=O)[C@@H]2CCCN(CCCc3ccc4c(n3)NCCC4)C2)C(=O)O)c1 [Compound 596]		> 7.00
CC1(C)CCCN(c2cccc([C@H](CNC(=O)[C@@H]3CCCN(CCCc4ccc5c(n4)NCCC5)C3)C(=O)O)c2)C1 [Compound 598]		< 6.00
CC1(C)CCN(c2cccc([C@H](CNC(=O)[C@@H]3CCCN(CCCc4ccc5c(n4)NCCC5)C3)C(=O)O)c2)CC1 [Compound 600]		6.00 to 7.00
C[C@@H]1CN(c2cccc([C@H](CNC(=O)[C@@H]3CCCN(CCCc4ccc5c(n4)NCCC5)C3)C(=O)O)c2)C[C@H](C)O1 [Compound 602]		6.00 to 7.00
